# Laboratory results published in patent US20250127176A1 (priority 2021, published 2025).
# Where two headings read alike, the source gives them in different places.
# Assays:
# [1] = system: late blight of potato (Phytophthora infestans); assay type: in vivo
# late blight of potato = assay type: in vivo, Phytophthora infestans; settings: T4: foliar spray, 7 days interval; 0.8 ml/L
# [2] = T3: foliar spray 30, 45, 60 and 75th day, dose 2.0 mL/Litre
# [3] = T4: foliar spray 30, 45, 60 and 75th day, dose 2 g/lit
# [4] = T5: foliar spray 45th day only, dose 2 g/lit
Molecule,"Per cent Disease Index (PDI) [1, 2] [%]","Per cent reduction over control [1, 2] [%]",Per cent Disease Index (PDI) (late blight of potato) [%],Per cent reduction over control (late blight of potato) [%],"Per cent Disease Index (PDI) [1, 3] [%]","Per cent reduction over control [1, 3] [%]","Per cent Disease Index (PDI) [1, 4] [%]","Per cent reduction over control [1, 4] [%]"
C#CCOc1ccc(CCNC(=O)C(OCC#C)c2ccc(Cl)cc2)cc1OC (centres unmarked) [Mandipropamid],12.5,86.7,14.11,83.40,–,–,–,–
Mancozeb,–,–,–,–,15.6,83.4,45.2,51.9
